Measured values published in PubChem BioAssay AID1159565 (GlaxoSmithKline (GSK), 2015).
Active and inactive are the calls of the source. How the calls were made is not given here.

System: T. cruzi-infected H9C2 cardiomyocytes, high-content imaging
Assay: anti-T. cruzi activity in infected cardiomyocytes – imaging, H9C2 host cardiomyocytes, host toxicity (AID 1159565);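 further: infected cells incubated 72 h after plating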
[1] = measured here: H9C2 host cell toxicity
[2] = measured here: amastigotes per cell

Row | Compound | IC50 | IC50 [1] | IC50 [2]
1 | O=C(NCc1nnc2n1CCCCC2)c1csc(-c2ccccc2)n1 | 2000 nM | > 50000 nM | 2000 nM
2 | COc1cc(-c2noc(CC#N)n2)ccc1OC(F)F | 40000 nM | 32000 nM | 25000 nM
3 | Cc1cccc(N2CCCN(Cc3c[nH]c4ccccc34)CC2)n1 | 400 nM | 2500 nM | 320 nM
4 | NC(=O)c1ccsc1NC(=O)c1ccc([N+](=O)[O-])s1 | 130 nM | > 50000 nM | 100 nM
5 | COc1cc(Cl)c(C)cc1NC(=O)c1ccc([N+](=O)[O-])s1 | 630 nM | 2500 nM | 500 nM
6 | c1ccc(CNc2cccc3ccncc23)cc1 | 6300 nM | > 50000 nM | 5000 nM
7 | COc1ccccc1C1CC(c2ccc(NS(C)(=O)=O)cc2)=NN1C(=O)c1cccs1 (stereo not drawn) | > 50000 nM (inactive) | > 50000 nM | > 50000 nM
8 | CN(C)Cc1ccc(N2CCC(NS(=O)(=O)c3ccc(Cl)cc3)CC2)cc1 | 320 nM | 13000 nM | 250 nM
9 | Cc1ccccc1CNC(=O)CN(Cc1ccccn1)Cc1ccccn1 | 16000 nM | > 79000 nM | 6300 nM
10 | c1ccc(CCNCc2cncc3nc(-c4cnccn4)n(C4CCCCC4)c23)cc1 | 130 nM | > 50000 nM | 130 nM
11 | COc1ncc(-c2ccc3nccc(-c4ccncc4)c3c2)cc1NS(=O)(=O)C1CC1 | 2500 nM | 790 nM | 2000 nM
12 | CN(C)S(=O)(=O)c1ccc(-c2cnc(N)c(-c3nc4ccc(F)cc4[nH]3)c2)cc1 | > 50000 nM (inactive) | 1300 nM | > 50000 nM
13 | O=C(c1ccccc1)N1CCC(C(=O)N2CCC(Oc3ccccc3Cl)CC2)CC1 | 32000 nM | > 50000 nM | 25000 nM
14 | COc1ccc2ncc(Cl)c(CCN3CC[C@H](NCc4cc5c(cn4)OCS5)[C@@H](O)C3)c2n1 | 160 nM | 10000 nM | 100 nM
15 | O=C(Nc1n[nH]c(-c2ccccn2)n1)C1CC1c1ccccc1 (stereo not drawn) | 20000 nM | > 50000 nM | 16000 nM
16 | CC(c1ccccn1)N(C)Cc1nc2ccccc2n1C(C)C (stereo not drawn) | 6300 nM | > 50000 nM | 2000 nM
17 | O=C(Nc1nc(-c2ccccn2)cs1)C1CCc2ccccc2C1 (stereo not drawn) | 2500 nM | 4000 nM | 2000 nM
18 | Cc1cc(C)c(C#N)c(SCC(=O)c2ccc3c(c2)OCO3)n1 | 790 nM | > 50000 nM | 400 nM
19 | COc1ccc(C2C3CCCCC3(O)CCN2CC(=O)Nc2ccc(Cl)cc2Cl)cc1 (stereo not drawn) | 1300 nM | 20000 nM | 790 nM
20 | COc1ccc(OC)c(S(=O)(=O)N(Cc2c(F)cccc2F)[C@@H]2CCN(C#N)C2)c1 | 13000 nM | 16000 nM | 6300 nM
21 | CS(=O)(=O)c1ccccc1C(=O)N(Cc1ccccc1)c1ccccc1 | > 50000 nM (inactive) | > 50000 nM | 40000 nM
22 | Cc1cc2nc(CN(C)Cc3ncccc3C)[nH]c2cc1C | 1000 nM | 13000 nM | 500 nM
23 | CCN(Cc1cccs1)C(=O)CSc1nnc(-c2ccc3c(c2)OCO3)o1 | 2500 nM | > 50000 nM | 1600 nM
24 | Cc1nc(N2CCC(C(=O)N3CCC(O)(c4cccnc4)CC3)CC2)nc2ccc(C(C)C)cc12 | 320 nM | 40000 nM | 400 nM
25 | CN(C)S(=O)(=O)c1cccc(CSc2nnc(-c3ccc4c(c3)OCO4)o2)c1 | 100 nM | > 50000 nM | 50 nM
26 | Nc1nc(-c2ccccn2)nc(-n2nc(-c3ccccc3)cc2N)n1 | 2500 nM | 2000 nM | 320 nM

Row | Compound | IC50 | IC50 [1] | IC50 [2]
27 | Cc1cccc(NS(=O)(=O)c2cnc3sc(C)cn3c2=O)c1 | 2000 nM | 6300 nM | 1000 nM
28 | O=C(Nc1ccc(C(F)(F)F)cc1)Nc1cccc([N+](=O)[O-])c1 | 1300 nM | 5000 nM | 790 nM
29 | COc1ccc(NS(=O)(=O)c2cc(-c3cc(C)[nH]n3)ccc2C)cc1OC | 2000 nM | > 50000 nM | 1300 nM
30 | CCn1nccc1CN(C)C(=O)C=Cc1ccc(Cl)cc1 | 320 nM | > 50000 nM | 320 nM
31 | Oc1c(-c2n[nH]c(CCc3ccccc3)n2)ncc2cccnc12 | 200 nM | 16000 nM | 200 nM
32 | CCC(=O)Nc1ccc(-c2nc3ccc(Cl)cc3[nH]2)cc1 | 1600 nM | > 50000 nM | 500 nM
33 | Cc1cc(C)nc(N2CCC(N(Cc3cccnc3)C(=O)c3cccc(C#N)c3)CC2)n1 | 320 nM | > 50000 nM | 400 nM
34 | O=C(c1ccc(Cl)cc1)c1ccc(OC(=O)N2CCOCC2)cc1 | > 50000 nM (inactive) | > 50000 nM | 6300 nM
35 | O=C(Nc1ccc(C(=O)N2CCCC2c2ccc3c(c2)OCCCO3)cc1)c1ccco1 (stereo not drawn) | 1000 nM | > 50000 nM | 630 nM
36 | CC(C)C[C@H](NC(=O)c1ccc(-c2ccccc2)o1)C(=O)NC1(C#N)CC1 | > 50000 nM (inactive) | > 50000 nM | 25000 nM
37 | Nc1nc(-c2ccccn2)nc(N)c1Cc1c(F)cccc1Cl | 2000 nM | 1300 nM | 1600 nM
38 | Cc1c(CNC(=O)c2ccc(Cn3cc(Cl)c([N+](=O)[O-])n3)cc2)cnn1C | 1600 nM | > 50000 nM | 790 nM
39 | O=c1[nH]cnc2c([C@@H]3O[C@H](CO)[C@@H](O)[C@H]3O)[nH]nc12 | 500 nM | > 50000 nM | 320 nM
40 | Cc1nn(-c2nc(N)nc(-c3ccccn3)n2)c(C)c1Cc1ccccc1 | 3200 nM | 20000 nM | 2000 nM
41 | CC(=O)Nc1ccc(-c2noc(CC3CCCN(Cc4cccc(F)c4C)C3)n2)cc1 (stereo not drawn) | 2000 nM | 32000 nM | 1300 nM
42 | Cc1occc1C(=O)Nc1ccccc1C(=O)Nc1nccs1 | > 50000 nM (inactive) | > 50000 nM | 32000 nM
43 | COc1ccc(-c2csc(NC(=O)c3ccc([N+](=O)[O-])s3)n2)cc1OC | 100 nM | 6300 nM | 79 nM
44 | O=C(Nc1nc(-c2ccccn2)cs1)c1ccccc1-n1cnnn1 | 3200 nM | 5000 nM | 2000 nM
45 | CCCCNc1nccc(-c2c(-c3ccc(F)cc3)nn3c(N4CCOCC4)cccc23)n1 | 3200 nM | > 50000 nM | 1000 nM
46 | Cc1ccccc1NS(=O)(=O)c1ccc2[nH]cc(C(=O)NC3CCCC(C)C3C)c(=O)c2c1 (stereo not drawn) | 6300 nM | 6300 nM | 3200 nM
47 | O=C(C1CCCCC1)N1CCN(c2nnc(-c3ccccc3)c3ccccc23)CC1 | 630 nM | > 50000 nM | 400 nM
48 | Cc1nn(C2CCS(=O)(=O)C2)c(C)c1CN(C)C(=O)C=Cc1sc2ccccc2c1Cl (stereo not drawn) | 500 nM | > 50000 nM | 320 nM
49 | O=C(NCCc1nc(-c2ccc(F)c(F)c2)n[nH]1)C1CCCCC1 | 2500 nM | > 50000 nM | 1600 nM
50 | O=C(CCc1ccc(-c2ccccc2)o1)N1CCN(c2ccc(O)cc2)CC1 | 1300 nM | > 50000 nM | 790 nM
51 | COCc1cnc2c(c1SCc1c(F)cccc1Cl)c(=O)n(C)c(=O)n2C | 4000 nM | > 50000 nM | 2500 nM
